Columns and labels:
Format in all cases: biochemical
Kdr = target: T1, Kdr (Homo sapiens, UniProt P35968); assay: Kinase inhibition assay (33P transfer), Kdr; settings: Table 3; for IC50: read-out: KDR-1
T1 construct: Kinases are expressed as either kinase domains or full length constructs; made in house
Method in brief: (§1)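 Radiometric readout: 33P incorporated into surface-bound poly(Glu,Tyr) 4:1 or poly(Arg,Ser) 3:1 is counted by liquid scintillation after a 0.5% phosphoric acid wash. Enzymes were GST or polyHis fusions (kinase domain or full length) from E. coli or High Five insect cells.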

c-Met = target: T2, c-Met (Homo sapiens, UniProt P08581); assay: Kinase inhibition assay (33P transfer), c-Met; settings: Table 2, kinase inhibition class; for IC50: read-out: Met-1
T2 construct: Kinases are expressed as either kinase domains or full length constructs; made in house
Method in brief: (§2)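 Activity read as 33P incorporation from ATP into poly(Glu,Tyr) 4:1 or poly(Arg,Ser) 3:1 substrate bound to microtiter plates, measured by scintillation after acid washing. Enzymes were affinity-purified GST or polyHis fusions (kinase domain or full length) from E. coli or baculovirus; IC50 = 50% reduction in labelled phosphate.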

Lyn = target: T3, Lyn (Homo sapiens, UniProt P07948); assay: Kinase inhibition assay (33P transfer), Lyn; settings: Table 6, Lyn-1 kinase inhibition class
T3 construct: Kinases are expressed as either kinase domains or full length constructs; made in house
Method in brief: as §2

EPHB4 = target: T4, EPHB4 (Homo sapiens, UniProt P54760); assay: Kinase inhibition assay (33P transfer), EPHB4; settings: for IC50: read-out: EPHB4-1
T4 construct: Kinases are expressed as either kinase domains or full length constructs; made in house
T4 sequence (P54760 16-987): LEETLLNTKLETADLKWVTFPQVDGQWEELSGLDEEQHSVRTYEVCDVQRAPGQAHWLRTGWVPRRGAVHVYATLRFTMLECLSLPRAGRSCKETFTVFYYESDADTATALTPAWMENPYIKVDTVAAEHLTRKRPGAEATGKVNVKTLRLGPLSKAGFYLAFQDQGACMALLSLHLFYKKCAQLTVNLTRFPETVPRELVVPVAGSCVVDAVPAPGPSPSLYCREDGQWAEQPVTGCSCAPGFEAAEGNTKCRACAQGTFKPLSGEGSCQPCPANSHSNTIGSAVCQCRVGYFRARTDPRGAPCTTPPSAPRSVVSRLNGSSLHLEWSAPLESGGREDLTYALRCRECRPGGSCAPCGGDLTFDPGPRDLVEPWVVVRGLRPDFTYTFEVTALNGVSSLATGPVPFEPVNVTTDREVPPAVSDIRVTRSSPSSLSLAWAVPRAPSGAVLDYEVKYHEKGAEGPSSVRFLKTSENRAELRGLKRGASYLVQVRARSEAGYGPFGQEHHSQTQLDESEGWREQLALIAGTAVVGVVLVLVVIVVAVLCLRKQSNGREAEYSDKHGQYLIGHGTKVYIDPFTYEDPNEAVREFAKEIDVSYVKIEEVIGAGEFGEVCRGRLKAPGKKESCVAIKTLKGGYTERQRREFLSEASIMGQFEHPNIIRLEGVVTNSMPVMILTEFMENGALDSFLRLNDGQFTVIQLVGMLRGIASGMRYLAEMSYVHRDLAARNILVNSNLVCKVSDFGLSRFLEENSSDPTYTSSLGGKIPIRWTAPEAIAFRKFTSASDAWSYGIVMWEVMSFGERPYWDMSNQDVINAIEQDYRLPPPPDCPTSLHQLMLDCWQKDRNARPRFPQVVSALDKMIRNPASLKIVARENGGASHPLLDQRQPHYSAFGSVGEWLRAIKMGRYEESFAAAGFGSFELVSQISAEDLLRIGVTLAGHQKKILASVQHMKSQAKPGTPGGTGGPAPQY

Zap-70 = target: T5, Zap-70 (Homo sapiens, UniProt P43403); assay: Kinase inhibition assay (33P transfer), Zap-70; settings: Table 3; for IC50: read-out: Zap-1
T5 construct: Kinases are expressed as either kinase domains or full length constructs; made in house
T5 sequence (P43403 1-619): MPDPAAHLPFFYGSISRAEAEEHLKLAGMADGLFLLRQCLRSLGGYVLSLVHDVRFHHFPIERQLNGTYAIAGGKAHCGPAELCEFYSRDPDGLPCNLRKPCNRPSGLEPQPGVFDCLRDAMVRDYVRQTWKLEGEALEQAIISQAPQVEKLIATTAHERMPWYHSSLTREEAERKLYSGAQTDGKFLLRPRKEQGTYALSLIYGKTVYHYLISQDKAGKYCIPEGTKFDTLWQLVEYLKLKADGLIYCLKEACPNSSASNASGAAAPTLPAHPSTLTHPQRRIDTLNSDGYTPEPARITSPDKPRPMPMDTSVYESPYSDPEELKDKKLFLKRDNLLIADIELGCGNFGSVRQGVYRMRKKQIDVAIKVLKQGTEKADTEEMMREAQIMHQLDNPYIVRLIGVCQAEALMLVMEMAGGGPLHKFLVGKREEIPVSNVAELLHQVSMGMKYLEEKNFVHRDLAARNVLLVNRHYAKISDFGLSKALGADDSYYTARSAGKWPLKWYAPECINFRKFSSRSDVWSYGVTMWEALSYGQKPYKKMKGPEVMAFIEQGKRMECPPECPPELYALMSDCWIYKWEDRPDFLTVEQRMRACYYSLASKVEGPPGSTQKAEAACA
Method in brief: as §1

Ret-1 = target: T6, Ret-1 (Homo sapiens, UniProt P07949); assay: Kinase inhibition assay (33P transfer), Ret; settings: Table 6, Ret-1 kinase inhibition class
T6 construct: Kinases are expressed as either kinase domains or full length constructs; made in house
T6 sequence (P07949 29-1114): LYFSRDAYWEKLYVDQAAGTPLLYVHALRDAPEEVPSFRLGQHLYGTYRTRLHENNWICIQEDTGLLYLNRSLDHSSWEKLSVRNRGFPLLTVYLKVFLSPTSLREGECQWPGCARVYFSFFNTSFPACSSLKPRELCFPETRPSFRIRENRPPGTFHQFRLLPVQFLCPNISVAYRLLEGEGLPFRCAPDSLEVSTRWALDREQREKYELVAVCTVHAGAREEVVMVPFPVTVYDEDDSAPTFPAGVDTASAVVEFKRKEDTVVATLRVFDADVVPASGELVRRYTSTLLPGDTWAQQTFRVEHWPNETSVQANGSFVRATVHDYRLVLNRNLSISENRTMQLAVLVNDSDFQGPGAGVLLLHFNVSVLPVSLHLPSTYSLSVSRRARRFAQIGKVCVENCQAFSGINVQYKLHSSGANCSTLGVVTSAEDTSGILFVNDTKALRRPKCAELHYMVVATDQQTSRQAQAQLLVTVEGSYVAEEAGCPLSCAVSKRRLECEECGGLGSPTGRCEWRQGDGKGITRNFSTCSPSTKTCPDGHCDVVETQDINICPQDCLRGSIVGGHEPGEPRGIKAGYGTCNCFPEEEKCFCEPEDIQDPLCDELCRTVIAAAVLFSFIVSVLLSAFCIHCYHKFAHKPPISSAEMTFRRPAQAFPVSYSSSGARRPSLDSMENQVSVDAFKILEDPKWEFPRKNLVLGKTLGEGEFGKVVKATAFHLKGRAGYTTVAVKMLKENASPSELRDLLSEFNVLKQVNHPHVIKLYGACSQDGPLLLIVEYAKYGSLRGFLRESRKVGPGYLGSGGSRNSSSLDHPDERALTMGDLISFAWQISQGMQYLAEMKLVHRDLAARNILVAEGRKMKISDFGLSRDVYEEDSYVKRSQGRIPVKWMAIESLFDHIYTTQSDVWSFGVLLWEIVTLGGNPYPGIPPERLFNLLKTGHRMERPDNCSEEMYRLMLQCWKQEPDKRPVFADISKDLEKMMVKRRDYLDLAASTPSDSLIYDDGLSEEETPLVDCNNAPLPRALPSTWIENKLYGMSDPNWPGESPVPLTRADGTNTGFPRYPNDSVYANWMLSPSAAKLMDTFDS

FGFR1 = target: T7, FGFR1 (Homo sapiens, UniProt P11362); assay: Kinase inhibition assay (33P transfer), FGFR1; settings: read-out: FGFR1-1
T7 construct: Kinases are expressed as either kinase domains or full length constructs; made in house
T7 sequence (P11362 22-822, species assumed): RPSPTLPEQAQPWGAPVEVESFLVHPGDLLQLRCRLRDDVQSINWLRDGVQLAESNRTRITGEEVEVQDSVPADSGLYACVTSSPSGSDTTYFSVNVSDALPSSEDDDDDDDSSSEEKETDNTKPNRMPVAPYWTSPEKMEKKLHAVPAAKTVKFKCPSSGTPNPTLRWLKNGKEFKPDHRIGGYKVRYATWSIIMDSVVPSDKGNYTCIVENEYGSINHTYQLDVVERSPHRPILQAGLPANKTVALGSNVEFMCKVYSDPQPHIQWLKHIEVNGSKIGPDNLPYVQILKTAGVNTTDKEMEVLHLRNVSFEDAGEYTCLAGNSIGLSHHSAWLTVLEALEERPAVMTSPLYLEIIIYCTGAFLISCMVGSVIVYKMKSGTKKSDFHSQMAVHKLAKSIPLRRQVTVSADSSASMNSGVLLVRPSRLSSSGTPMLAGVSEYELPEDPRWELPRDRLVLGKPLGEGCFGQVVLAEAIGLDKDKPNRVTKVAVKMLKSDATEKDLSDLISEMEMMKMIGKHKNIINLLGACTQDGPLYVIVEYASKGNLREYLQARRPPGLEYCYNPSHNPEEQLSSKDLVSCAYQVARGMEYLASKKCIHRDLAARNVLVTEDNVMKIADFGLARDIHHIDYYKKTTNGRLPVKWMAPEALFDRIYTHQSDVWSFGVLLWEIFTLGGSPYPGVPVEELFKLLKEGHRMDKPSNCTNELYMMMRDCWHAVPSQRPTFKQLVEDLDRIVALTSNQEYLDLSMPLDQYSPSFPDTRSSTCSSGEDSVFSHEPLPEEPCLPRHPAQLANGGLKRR

Hck-1 = target: T8, Hck-1 (Homo sapiens, UniProt P08631); assay: Kinase inhibition assay (33P transfer), Hck; settings: Table 6, Hck-1 kinase inhibition class
T8 construct: Kinases are expressed as either kinase domains or full length constructs; made in house
T8 sequence (P08631 whole entry, the tested form may be a part): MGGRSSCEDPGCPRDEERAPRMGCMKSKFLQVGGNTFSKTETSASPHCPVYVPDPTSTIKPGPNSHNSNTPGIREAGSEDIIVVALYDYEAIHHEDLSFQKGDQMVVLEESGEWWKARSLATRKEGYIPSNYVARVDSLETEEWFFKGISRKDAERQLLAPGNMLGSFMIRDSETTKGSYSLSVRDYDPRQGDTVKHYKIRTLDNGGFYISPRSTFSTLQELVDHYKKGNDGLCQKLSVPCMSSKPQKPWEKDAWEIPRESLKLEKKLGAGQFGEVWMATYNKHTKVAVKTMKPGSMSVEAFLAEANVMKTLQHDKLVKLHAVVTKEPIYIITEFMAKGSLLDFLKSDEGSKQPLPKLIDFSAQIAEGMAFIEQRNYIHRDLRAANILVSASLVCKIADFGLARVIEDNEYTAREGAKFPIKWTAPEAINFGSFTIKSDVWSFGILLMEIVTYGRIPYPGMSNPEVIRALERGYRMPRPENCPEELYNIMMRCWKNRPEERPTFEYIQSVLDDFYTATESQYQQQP

Tek = target: T9, Tek (Homo sapiens, UniProt Q02763); assay: Kinase inhibition assay (33P transfer), Tek; settings: read-out: Tek-1
T9 construct: Kinases are expressed as either kinase domains or full length constructs; made in house
T9 sequence (Q02763 23-1124, species assumed): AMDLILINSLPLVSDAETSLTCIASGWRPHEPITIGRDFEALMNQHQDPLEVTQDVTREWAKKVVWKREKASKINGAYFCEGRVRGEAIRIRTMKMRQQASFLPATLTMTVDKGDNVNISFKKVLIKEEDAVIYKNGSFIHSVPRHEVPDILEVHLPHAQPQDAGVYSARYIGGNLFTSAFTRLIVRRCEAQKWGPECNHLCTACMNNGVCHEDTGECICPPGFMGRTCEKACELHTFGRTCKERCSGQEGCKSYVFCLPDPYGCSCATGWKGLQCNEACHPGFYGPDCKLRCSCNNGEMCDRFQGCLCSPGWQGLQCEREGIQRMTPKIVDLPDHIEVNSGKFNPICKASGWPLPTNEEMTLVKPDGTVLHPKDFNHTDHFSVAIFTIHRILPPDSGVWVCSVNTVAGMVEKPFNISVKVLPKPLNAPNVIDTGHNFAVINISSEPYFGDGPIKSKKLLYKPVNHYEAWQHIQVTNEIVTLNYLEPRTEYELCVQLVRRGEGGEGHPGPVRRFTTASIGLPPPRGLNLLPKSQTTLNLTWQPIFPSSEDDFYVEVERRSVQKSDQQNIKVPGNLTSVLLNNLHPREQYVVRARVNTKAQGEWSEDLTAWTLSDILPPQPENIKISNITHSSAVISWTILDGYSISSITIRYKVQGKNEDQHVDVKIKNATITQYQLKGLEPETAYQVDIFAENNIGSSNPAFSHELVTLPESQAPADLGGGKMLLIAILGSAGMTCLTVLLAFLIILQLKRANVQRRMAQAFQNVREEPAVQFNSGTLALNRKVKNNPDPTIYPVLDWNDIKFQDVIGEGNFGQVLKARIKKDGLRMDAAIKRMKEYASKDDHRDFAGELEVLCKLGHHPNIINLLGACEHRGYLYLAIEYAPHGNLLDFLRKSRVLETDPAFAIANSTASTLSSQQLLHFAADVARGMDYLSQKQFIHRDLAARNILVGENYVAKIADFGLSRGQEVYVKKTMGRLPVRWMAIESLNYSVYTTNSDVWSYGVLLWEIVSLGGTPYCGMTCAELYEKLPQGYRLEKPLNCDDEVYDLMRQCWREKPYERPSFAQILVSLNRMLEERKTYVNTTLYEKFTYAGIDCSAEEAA
Method in brief: as §2

T1 sequence (P35968 20-1356, species assumed): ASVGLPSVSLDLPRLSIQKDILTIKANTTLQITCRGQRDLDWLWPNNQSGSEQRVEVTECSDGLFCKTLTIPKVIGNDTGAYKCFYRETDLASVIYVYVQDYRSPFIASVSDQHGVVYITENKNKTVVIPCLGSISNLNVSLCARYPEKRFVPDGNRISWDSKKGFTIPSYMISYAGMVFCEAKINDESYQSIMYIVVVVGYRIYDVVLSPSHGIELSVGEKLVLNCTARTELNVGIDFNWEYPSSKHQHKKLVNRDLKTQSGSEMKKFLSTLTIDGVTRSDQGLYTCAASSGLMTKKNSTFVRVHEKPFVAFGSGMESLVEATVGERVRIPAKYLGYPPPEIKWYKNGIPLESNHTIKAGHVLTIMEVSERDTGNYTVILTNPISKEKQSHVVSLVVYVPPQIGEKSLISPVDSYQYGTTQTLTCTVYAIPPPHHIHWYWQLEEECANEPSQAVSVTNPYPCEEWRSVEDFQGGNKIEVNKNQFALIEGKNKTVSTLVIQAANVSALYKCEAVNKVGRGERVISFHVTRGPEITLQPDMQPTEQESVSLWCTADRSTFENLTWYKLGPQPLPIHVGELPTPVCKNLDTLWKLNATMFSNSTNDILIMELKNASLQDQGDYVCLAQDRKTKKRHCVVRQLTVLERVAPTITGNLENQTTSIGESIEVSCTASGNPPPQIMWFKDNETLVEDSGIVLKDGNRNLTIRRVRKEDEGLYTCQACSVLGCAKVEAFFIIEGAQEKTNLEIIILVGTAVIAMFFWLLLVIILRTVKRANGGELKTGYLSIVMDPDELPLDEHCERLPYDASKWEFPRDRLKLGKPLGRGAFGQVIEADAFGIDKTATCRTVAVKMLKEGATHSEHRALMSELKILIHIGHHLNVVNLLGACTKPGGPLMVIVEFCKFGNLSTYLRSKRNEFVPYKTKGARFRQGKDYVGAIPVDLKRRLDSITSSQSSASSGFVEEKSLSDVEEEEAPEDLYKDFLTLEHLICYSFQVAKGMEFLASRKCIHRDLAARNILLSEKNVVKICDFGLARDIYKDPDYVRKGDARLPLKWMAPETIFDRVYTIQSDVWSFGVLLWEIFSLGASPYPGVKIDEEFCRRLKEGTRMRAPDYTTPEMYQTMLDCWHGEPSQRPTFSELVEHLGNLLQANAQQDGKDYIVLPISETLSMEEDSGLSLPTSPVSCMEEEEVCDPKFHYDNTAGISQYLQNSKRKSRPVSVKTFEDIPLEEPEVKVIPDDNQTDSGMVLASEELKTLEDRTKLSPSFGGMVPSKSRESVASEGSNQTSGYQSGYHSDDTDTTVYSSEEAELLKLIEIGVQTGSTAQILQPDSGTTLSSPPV

SMILES | IC50 (Kdr) [µM] | IC50 (c-Met) [µM] | IC50 (Lyn) [µM] | IC50 (EPHB4) [µM] | IC50 (Zap-70) [µM] | IC50 (Ret-1) [µM] | IC50 (FGFR1) [µM] | IC50 (Hck-1) [µM] | IC50 (Tek) [µM] | KDR-1 (Kdr) | Met-1 (c-Met) | Lyn-1 (Lyn) | EPHB4-1 (EPHB4) | Zap-1 (Zap-70) | Hck-1 (Hck-1)
COc1cc(Nc2ncnc(Nc3cc(-c4cccs4)n[nH]3)n2)cc(OC)c1OC [Compound 318] | < 0.94 | < 0.94 | < 0.94 | < 0.94 | > 10.6 | < 0.94 | 0.94 to 5.64 | 0.94 to 5.64 | 5.64 to 8.23 |  |  |  |  |  | 
c1coc(-c2cc(Nc3ncnc(Nc4ccc(N5CCOCC5)cc4)n3)[nH]n2)c1 [Compound 340] | < 0.989 | < 0.989 | 0.989 to 5.93 | 0.989 to 5.93 | > 11.1 | < 0.989 | 0.989 to 5.93 | > 11.1 | 8.65 to 11.1 |  |  |  |  |  | 
COc1cc(Nc2ncnc(-n3ccc4cc(OCc5ccccc5)ccc43)n2)cc(OC)c1OC [Compound 200] | 4.96 to 7.24 | 7.24 to 9.31 | > 9.31 | > 9.31 | > 9.31 | > 9.31 | 7.24 to 9.31 | > 9.31 | > 9.31 |  |  |  |  |  | 
COc1cc(Nc2ncnc(-n3cnc4ccccc43)n2)cc(OC)c1OC [Compound 186] | < 1.06 | 1.06 to 6.34 | 9.25 to 11.9 | > 11.9 | > 11.9 | > 11.9 | > 11.9 | > 11.9 | 9.25 to 11.9 |  |  |  |  |  | 
COc1cc(Nc2ncnc(Nc3cc(-c4ccco4)n[nH]3)n2)cc(OC)c1OC [Compound 308] | < 0.977 | < 0.977 | < 0.977 | < 0.977 | > 11 | < 0.977 | < 0.977 | 0.977 to 5.86 | 5.86 to 8.55 |  |  |  |  |  | 
COc1cc(Nc2ncnc(N3c4ccc(F)cc4CCC3C)n2)cc(OC)c1OC (centres unmarked) [Compound 298] | < 0.94 | < 0.94 | < 0.94 | 0.94 to 5.64 | 8.23 to 10.6 | < 0.94 | < 0.94 | 0.94 to 5.64 | 0.94 to 5.64 |  |  |  |  |  | 
COc1cc(Nc2ncnc(-n3c(Nc4ccccc4)nc4ccccc43)n2)cc(OC)c1OC [Compound 336] |  | > 9.58 | 0.852 to 5.11 | > 9.58 | > 9.58 | < 0.852 | < 0.852 | > 9.58 | > 9.58 |  |  |  |  |  | 
COc1ccc(Nc2ncnc(Nc3cc(OC)c(OC)c(OC)c3)n2)cc1O [Compound 931] | < 1 | > 11.3 | < 1 | 1 to 6.01 | > 11.3 | < 1 | 1 to 6.01 | 1 to 6.01 | 8.76 to 11.3 |  |  |  |  |  | 
COc1cc(Nc2ncnc(Nc3cc(C(C)(C)C)[nH]n3)n2)cc(OC)c1OC [Compound 313] | 1 to 6.01 | < 1 | < 1 | 1 to 6.01 | > 11.3 | 1 to 6.01 | 1 to 6.01 | 6.01 to 8.76 | > 11.3 |  |  |  |  |  | 
COc1ccc(Nc2ncnc(-n3c(N)nc4ccccc43)n2)cc1O [Compound 286] | < 1.14 | 1.14 to 6.87 | > 12.9 | 6.87 to 10 | > 12.9 | < 1.14 | < 1.14 | > 12.9 | 1.14 to 6.87 |  |  |  |  |  | 
C=CCN(c1ccc(Cl)cc1)c1ncnc(Nc2cc(OC)c(OC)c(OC)c2)n1 [Compound 972] | < 0.935 | 0.935 to 5.61 | < 0.935 | 0.935 to 5.61 | > 10.5 |  | 0.935 to 5.61 | > 10.5 | 8.18 to 10.5 |  |  |  |  |  | 
COc1cc(Nc2ncnc(Nc3cc(OC)c(OC)c(OC)c3)n2)cc(OC)n1 [Compound 253] | 0.965 to 5.79 | > 10.9 | > 10.9 | > 10.9 | > 10.9 |  |  | > 10.9 |  |  |  |  |  |  | 
Cc1cccc(Nc2ncnc(Nc3cccc(Br)c3)n2)c1 [Compound 109] | 6.74 to 9.83 | > 12.6 |  | > 12.6 | 6.74 to 9.83 |  |  |  | > 12.6 |  |  |  |  |  | 
COc1ccc(Nc2ncnc(Nc3ccc(N(C)C)cc3)n2)cc1OC [Compound 114] | < 1.09 | > 12.3 |  | > 12.3 | > 12.3 | 1.09 to 6.55 | > 12.3 |  | > 12.3 |  |  |  |  |  | 
COc1ccc(Nc2ncnc(Nc3cccc(C)c3)n2)cc1OC [Compound 108] | 7.11 to 10.4 | > 13.3 | < 1.19 | > 13.3 | > 13.3 |  | 1.19 to 7.11 | > 13.3 | > 13.3 |  |  |  |  |  | 
COc1cc(Nc2ncnc(N3CCCCC3)n2)cc(OC)c1OC [Compound 207] | 1.16 to 6.95 | > 13 |  | > 13 | > 13 |  | > 13 |  | > 13 |  |  |  |  |  | 
COc1cc(Nc2ncnc(Nc3ccc(Br)c(Cl)c3)n2)cc(OC)c1OC [Compound 936] | 0.857 to 5.14 | > 9.64 | < 0.857 | < 0.857 | > 9.64 |  | 0.857 to 5.14 | 5.14 to 7.5 | > 9.64 |  |  |  |  |  | 
COc1cc(Nc2ncnc(Nc3ccc(C)c(N)c3)n2)cc(OC)c1OC [Compound 935] | < 1.05 | > 11.8 | < 1.05 | 1.05 to 6.28 | > 11.8 |  | 1.05 to 6.28 | 6.28 to 9.15 | > 11.8 |  |  |  |  |  | 
CCOc1ccc(Nc2ncnc(Nc3ccc(OCc4ccccc4)cc3)n2)cc1OCC [Compound 170] | 0.874 to 5.25 | 5.25 to 7.65 | > 9.84 | 5.25 to 7.65 | 5.25 to 7.65 |  | > 9.84 | > 9.84 | 5.25 to 7.65 |  |  |  |  |  | 
COc1ccc(Nc2ncnc(Nc3ccc(Oc4ccccc4)cc3)n2)cc1OC [Compound 929] | 0.963 to 5.78 | < 0.963 |  | > 10.8 | 5.78 to 8.42 | 5.78 to 8.42 | > 10.8 |  | > 10.8 |  |  |  |  |  | 
COc1ccc(Nc2ncnc(Nc3cc(OC)c(OC)c(OC)c3)n2)cn1 [Compound 28] |  |  |  |  |  |  |  |  |  | A (A<0.4 ug/mL) | E (E>4.5 ug/mL) | B (B>0.4 and <2.4 ug/mL) | B (B>0.4 and <2.4 ug/mL) | E (E>4.5 ug/mL) | E (E>4.5 ug/mL)
COc1ccc(N(C)c2ncnc(Nc3cc(OC)c(OC)c(OC)c3)n2)cc1 [Compound 106] | < 1.01 | 1.01 to 6.04 |  | 1.01 to 6.04 | > 11.3 | 1.01 to 6.04 | 1.01 to 6.04 |  | > 11.3 |  |  |  |  |  | 

— US7074789B2, “Kinase inhibitors” (Amgen Inc., priority 1999, dated 2006)
